From publication PMC8225628, “Bispecific repurposed medicines targeting the viral and immunological arms of COVID-19” (Scientific Reports, 2021)
Where “and” joins values, the source holds several entries; their conditions need not be identical. Identical values can stand only once. Like-named read-outs stand apart in the source and are kept apart here. *1 amine or outer side, *2 acyl side, *3 side chain or, on linkers, in order; H or OH if unused. Where a SMILES comes first, the peptide text is derived from it. Bridges are numbered along the chain shown (N, C = ends). [ ]: non-standard residue; d: D form. The star is where a group is joined. hTyr(3S-OH,4S-OH,3'-OSO3H) = N[C@H](C(=O)O)[C@H](O)[C@@H](O)c1ccc(O)c(OS(=O)(=O)O)c1; Orn(4R-OH,5R-OH) = O=C([C@H](C[C@@H](O)[C@@H](O)N[*:3])N[*:1])[*:2]; Pro(3S-OH,4S-Me) = C[C@H]1CN[C@H](C(=O)O)[C@H]1O; X1 = CCCCCOc1ccc(-c2cc(-c3ccc(C(=O)*)cc3)no2)cc1; Gln(3R-OH) = NC(=O)C[C@@H](O)[C@H](N)C(=O)O; Hyp = O=C(O)[C@@H]1C[C@@H](O)CN1

Target: SARS-CoV-2 M^pro (Severe acute respiratory syndrome coronavirus 2, UniProt P0DTD1)
Experiment: biochemical
[1] = ReFRAME hits, >5e-6 = not potent enough to determine an IC50, read-out: M^pro IC50

teicoplanin [reference compound]
M^pro % inhibition at 10 µM (ReFRAME hits, 10 µM): 73% and 40% | IC50 [1]: > 5 µM

Cc1cc(O)c2c(=O)c3c(O)cc(O)c4c5c(O)cc(O)c6c(=O)c7c(O)cc(C)c8c1c2c(c34)c(c78)c65 [hypericin]
inhibition at 10 µM (read-out: M^pro % inhibition at 10 µM, ReFRAME hits, 10 µM): 71% | IC50 (read-out: M^pro IC50): 4 µM

O=c1cc(-c2ccc(O)c(-c3c(O)cc(O)c4c(=O)cc(-c5ccc(O)cc5)oc34)c2)oc2cc(O)cc(O)c12 [amentoflavone]
IC50 (read-out: M^pro IC50): > 5 µM

O=C(N/N=C/c1ccc([N+](=O)[O-])o1)c1cc([N+](=O)[O-])cc([N+](=O)[O-])c1O [nifursol]
IC50 (read-out: M^pro IC50): > 5 µM

CN1CCCN=C1/C=C/c1cccc(O)c1 [oxantel (pamoate), reference compound]
IC50 [1]: 4 µM

CN1CCCN=C1/C=C/c1cccs1 [Pyrantel pamoate, reference compound]
IC50: 4 µM

CC(=O)[O][Hg][c]1cc(C(C)(C)CC(C)(C)C)ccc1O [acetomeroctol]
M^pro % inhibition at 10 µM: 79% | IC50 (read-out: M^pro IC50): > 5 µM

O=C1OC2(c3ccccc31)c1cc(I)c(O)c(I)c1Oc1c2cc(I)c(O)c1I [erythrosine]
IC50: 4 µM

CCCCCOc1ccc(-c2cc(-c3ccc(C(=O)N[C@H]4C[C@@H](O)[C@@H](O)NC(=O)[C@@H]5[C@@H](O)[C@@H](C)CN5C(=O)[C@H]([C@H](O)CC(N)=O)NC(=O)[C@H]([C@H](O)[C@@H](O)c5ccc(O)c(OS(=O)(=O)[O-])c5)NC(=O)[C@@H]5C[C@@H](O)CN5C(=O)[C@H]([C@@H](C)O)NC4=O)cc3)no2)cc1.[Na+] [micafungin Sodium, reference compound] (X1-[Orn(4R-OH,5R-OH)]T[Hyp][hTyr(3S-OH,4S-OH,3'-OSO3H)][Gln(3R-OH)][Pro(3S-OH,4S-Me)]; lactam 1-C)
M^pro % inhibition at 10 µM (ReFRAME hits, 10 µM): 50% | IC50 [1]: > 5 µM

(-)-epicatechin gallate
M^pro % inhibition at 10 µM (ReFRAME hits, 10 µM): 46% | IC50 [1]: > 5 µM

[(-)-epicatechin]
M^pro % inhibition at 10 µM (ReFRAME hits, 10 µM): 48% | IC50 [1]: > 5 µM

Nc1nc(N)nc(Nc2ccc([As]3SC(C(=O)O)C(C(=O)O)S3)cc2)n1 (stereo not drawn) [MELARSONYL]
M^pro % inhibition at 10 µM: 99% | IC50 (read-out: M^pro IC50): 1 µM

CC(=O)N[C@@H](Cc1ccc(O)cc1)C(=O)N[C@H](C(=O)N[C@@H](C)C(=O)N[C@@H](CC(=O)O)C(=O)COC(=O)c1c(C)cccc1C)C(C)C [Compound 6, Ac-YVAD-AOM, reference compound]
Inhibition of M^pro (in words): did not substantially inhibit

[Cl][Hg][Cl] [mercuric chloride]
M^pro % inhibition at 10 µM (ReFRAME hits, 10 µM): 89% | IC50 [1]: > 5 µM

CN1CCCN=C1/C=C/c1cccc(O)c1.O=C(O)c1cc2ccccc2c(Cc2c(O)c(C(=O)O)cc3ccccc23)c1O [oxantel (pamoate), reference compound]
M^pro % inhibition at 10 µM (ReFRAME hits, 10 µM): 77%

CC(C)[C@H](NC(=O)OCc1ccccc1)C(=O)N[C@@H](C)C(=O)N[C@@H](CC(=O)O)C(=O)COC(=O)c1c(Cl)cccc1Cl [Compound 5]
inhibition at 100 µM (at 100 µM): 50%
